Measured values: patent publication US20240018611A1, “IMMUNE MOLECULE VIRUS PARTICLE DETECTION KIT” (priority 2021, published 2024)

Columns and labels:
HBV [1] = assay: HBV DNA in supernatant of ETV-treated HepG2.2.15 cells (immune capture of virus particles + qPCR); type: cell-based, hepatitis B virus (HBV)
Procedure: (§1) The inventor selects the supernatant of HBV-secreting cells ([…] and HepAD38) for testing and verification. HepG2.2.15 and HepAD38 are the two cell lines that are commonly used in the laboratory to stably express HBV, and entecavir (ETV) is the first-line drug in clinical treatment of hepatitis B at present. The inventor uses different concentration gradients of ETV (0.1 μM, 1 μM, 10 μM, PBS as control group). Then, the virus particles are captured by virus particle-antibody (the envelope PreS1 monoclonal antibody and the core particle HBc monoclonal antibody)-biotin-streptavidin-magnetic beads, and the genomic DNA of HBV in the corresponding virus particles is detected.
(§2) In order to study the dynamic changes of HBV DNA with different components, two cell lines, HepG2.2.15 and HepAD38, which stably express HBV, are pretreated with different concentration gradients of ETV (0.1 μM, 1 μM, 10 μM and a PBS control group), and the supernatant is discarded after 24 hours, and replaced with fresh Dulbecco's modified eagle medium (DMEM) and ETV with different concentration gradients. After 72 hours, the supernatant is transferred to an EP tube, and the virus particles in the supernatant are captured by PreS1 antibody-magnetic beads and HBc antibody-magnetic beads respectively, and the captured products are detected by qPCR.
The above research results mean that the capture method can separate and capture virus particles in cell supernatant. […] The same conclusion is obtained in HepAD38 cell experiment (FIGS. 10A-10B).

HBV [2] = assay: HBV DNA in supernatant of ETV-treated HepAD38 cells (immune capture of virus particles + qPCR); type: cell-based, hepatitis B virus (HBV)
Procedure: as §1, §2

[3] = ETV 0.1 μM, 1 μM, 10 μM, PBS control, antibody-biotin-streptavidin-magnetic bead capture, FIGS. 2A-2B

C=C1[C@H](CO)[C@@H](O)C[C@@H]1n1cnc2c(=O)[nH]c(N)nc21 [ETV, entecavir]
viral genomic DNA (total, complete virus particles, core particles) in cell supernatant versus ETV concentration (HBV [1]; [3]): The higher the concentration of ETV, the lower the viral genomic DNA detected by the three methods
copies of HBV DNA in the supernatant (HBV [1]; ETV 0.1 μM, 1 μM, 10 μM, supernatant after 72 hours, PreS1/HBc antibody-magnetic bead capture, FIGS. 9A-9B): decreased in a dose-dependent manner
total HBV genomic DNA, complete virus particle genomic DNA and virus core particle DNA over time (HBV [1]; ETV 1 uM, FIGS. 2C-2D): all decreased rapidly in two days
viral genomic DNA (total, complete virus particles, core particles) in cell supernatant versus ETV concentration (HBV [2]; [3]): The higher the concentration of ETV, the lower the viral genomic DNA detected by the three methods
total HBV genomic DNA, complete virus particle genomic DNA and virus core particle DNA over time (HBV [2]; ETV 1 uM, FIGS. 2C-2D): all decreased rapidly in two days
